# Assay results from US7662412B2, “Traditional Chinese medicine composition to treat rheumatoid arthritis and preparation method thereof” (priority 2005, dated 2010).
# Legend:
# [1] = test system: DTH T cell subsets (L3T4+, Lyt-2+); test: DTH T cell subsets of mouse (DNFB, splenic lymphocytes, immunofluorescence); settings: 5 mg
# interleukin-1 (IL-1) = test: IL-1 activity of LPS-induced peritoneal macrophages of adjuvant arthritis rats (thymocyte bioassay); format: in vivo, rat; settings: AA rats, 5 mg; 570 nm; model group 0.87 ± 0.03
# Protocol: Fizzer complete adjuvant (from Sigma Co.) was emulsified and injected subcutaneously and sterilely 0.1 ml into the right meta voix pedis of each rat (♂, 160±20 g) to establish a model of adjuvant-induced arthritis.
# Preparation of peritoneal macrophage: Execute rats at 25th days after injecting complete adjuvant, then rapidly inject proper amount of Hank's solution into the belly of them, and rub their abdominal wall several times before collecting peritoneal fluid. Wash it with Hank's solution containing 5% calf serum twice, then prepare 1×10^6/mL cell suspension with wholly swelling RPMI1640. Transfer into a culture plate with 24 wells, 1 ml each well. Incubate them in a 5% CO2 incubator overnight at a temperature of 37° C., abandon the supernatant fluid, wash with pre-warmed Hank's solution containing 5% calf serum at 37° C. twice, and remove un-adherent cell. The residue was peritoneal macrophage.
# 2. IL-1 induction: Add 10 μg/mL lipopolysaccharide (LPS) to the above culture plate with 24 wells, then incubate for 24 hours, centrifuge (2000 rpm, 5 min), collect the […], and filter with micropore filter. This solution was the IL-1 sample to be detected. 3. […]
smiles,measurement,setting,value
C[C@]12C=CC(=O)C=C1CC[C@@H]1[C@@H]2C(=O)C[C@@]2(C)[C@H]1CC[C@]2(O)C(=O)CO [Prednisone],Cells number L3T4^+,[1],59.6 ± 7.5%
same,Cells number Lyt-2^+,[1],56.2 ± 3.8 %
same,L3T4^+/Lyt-2^+,[1],1.21 ± 0.14
same,OD Value (IL-1 activity),interleukin-1 (IL-1),0.34 ± 0.02
